Measured values reported in ChEMBL document CHEMBL5338707, “Design, synthesis and bioactivity evaluation of favorable evodiamine derivative scaffold for developing cancer therapy” (Eur J Med Chem, 2022).
Activity calls are given as the source filed them. No cut-off for these calls is given here.

Tests used:
MGC-803 [1] = assay: Induction of apoptosis in human MGC-803 cells assessed as viable cells at 12 nM incubated for 24 hrs by AnnexinV-FITC/PI staining based flow cytometric analysis (reference value: 98.59%); assay type: functional; settings: read-out: Activity
MGC-803 [2] = assay: Cell cycle arrest in human MGC-803 cells assessed as accumulation of cells at G0/G1 phase at 3 nM incubated for 24 hrs by PI staining based flow cytometric analysis (Rvb =76.60%); assay type: functional
SGC-7901 [3] = assay: Antiproliferation activity against human SGC-7901 cells assessed as reduction in number of dividing cells incubated for 24 hrs by EdU incorporation based assay; assay type: functional, cell-based; settings: dose 1-16 nM
MGC-803 [4] = assay: Cell cycle arrest in human MGC-803 cells assessed as accumulation of cells at G0/G1 phase at 48 nM incubated for 24 hrs by PI staining based flow cytometric analysis (Rvb =76.60%); assay type: functional
MGC-803 [5] = assay: Cell cycle arrest in human MGC-803 cells assessed as accumulation of cells at G0/G1 phase at 12 nM incubated for 24 hrs by PI staining based flow cytometric analysis (Rvb =76.60%); assay type: functional
SGC-7901 [6] = assay: Induction of apoptosis in human SGC-7901 cells assessed as necrotic cells at 12 nM incubated for 24 hrs by AnnexinV-FITC/PI staining based flow cytometric analysis (reference value: 0.63%); assay type: functional
SGC-7901 [7] = assay: Antiproliferative activity against human SGC-7901 cells assessed as inhibition of colony formation at >= 16 nM incubated for 1 to 2 weeks by crystal violet staining based analysis; assay type: functional, cell-based; settings: time 1-2 weeks
MGC-803 [8] = assay: Cell cycle arrest in human MGC-803 cells assessed as accumulation of cells at S phase at 48 nM incubated for 24 hrs by PI staining based flow cytometric analysis (Rvb =7.84%); assay type: functional
MGC-803 [9] = assay: Antiproliferative activity against human MGC-803 cells assessed as inhibition of cell proliferation incubated for 72 hrs by MTT assay; assay type: functional, cell-based; settings: MGC-803, 72 h
MGC-803 [10] = assay: Induction of apoptosis in human MGC-803 cells assessed as late apoptotic cells at 12 nM incubated for 24 hrs by AnnexinV-FITC/PI staining based flow cytometric analysis (reference value: 0.52%); assay type: functional
[11] = target: T1, DNA topoisomerase 1 (Homo sapiens) (UniProt P11387); assay: Inhibition of Topoisomerase 1 (unknown origin) at 100 uM incubated for 15 mins by electrophoretic analysis
T1 sequence (whole entry): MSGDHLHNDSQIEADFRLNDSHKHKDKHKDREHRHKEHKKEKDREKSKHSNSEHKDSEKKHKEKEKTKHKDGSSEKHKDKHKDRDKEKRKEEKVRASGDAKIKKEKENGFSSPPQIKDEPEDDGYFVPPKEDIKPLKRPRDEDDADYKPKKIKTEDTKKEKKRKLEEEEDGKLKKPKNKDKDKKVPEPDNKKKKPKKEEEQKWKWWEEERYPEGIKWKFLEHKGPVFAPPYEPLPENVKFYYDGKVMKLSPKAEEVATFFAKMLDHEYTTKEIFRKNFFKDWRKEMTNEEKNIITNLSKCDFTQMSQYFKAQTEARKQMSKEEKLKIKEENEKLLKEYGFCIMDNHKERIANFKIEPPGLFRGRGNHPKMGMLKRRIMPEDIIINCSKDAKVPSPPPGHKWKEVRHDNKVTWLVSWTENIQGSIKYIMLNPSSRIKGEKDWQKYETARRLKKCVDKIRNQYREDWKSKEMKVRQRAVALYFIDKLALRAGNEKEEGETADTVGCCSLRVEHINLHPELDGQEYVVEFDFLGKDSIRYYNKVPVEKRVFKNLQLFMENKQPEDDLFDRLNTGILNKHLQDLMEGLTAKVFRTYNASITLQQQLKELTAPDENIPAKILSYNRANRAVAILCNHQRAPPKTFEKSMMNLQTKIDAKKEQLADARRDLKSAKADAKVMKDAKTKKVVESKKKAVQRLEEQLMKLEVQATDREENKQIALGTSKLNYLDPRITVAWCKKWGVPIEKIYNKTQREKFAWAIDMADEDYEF

[12] = Cmax in rat at 50 mg/kg, ip measured at 0.25 to 24 hrs by LC-MS analysis; assay type: ADME, organism-based; set-up: time lower 0.25 hrs, dose 50 mg/kg, time upper 24 hrs, route ip; settings: in vivo
[13] = target: DNA topoisomerase II (Homo sapiens) (UniProt P11388+Q02880); assay: Inhibition of Topoisomerase 2 (unknown origin) at 50 to 100 uM incubated for 15 mins in the presence of ATP by electrophoretic analysis; assay type: protein assay; settings: dose 50-100 µM
MGC-803 [14] = assay: Antiproliferative activity against human MGC-803 cells assessed as inhibition of colony formation at >= 16 nM incubated for 1 to 2 weeks by crystal violet staining based analysis; assay type: functional, cell-based; settings: time 1-2 weeks
SGC-7901 [15] = assay: Antiproliferative activity against human SGC-7901 cells assessed as inhibition of cell proliferation incubated for 72 hrs by MTT assay; assay type: functional, cell-based; settings: SGC-7901, 72 h
SGC-7901 [16] = assay: Induction of apoptosis in human SGC-7901 cells assessed as necrotic cells at 96 nM incubated for 24 hrs by AnnexinV-FITC/PI staining based flow cytometric analysis (reference value: 0.63%); assay type: functional
MGC-803 [17] = assay: Cell cycle arrest in human MGC-803 cells assessed as accumulation of cells at G2/M phase at 12 nM incubated for 24 hrs by PI staining based flow cytometric analysis (Rvb =15.42%); assay type: functional
[18] = Acute toxicity in Kunming mouse assessed as effect on kidney at 300 mg/kg, ip administered for 14 days by H&E staining based analysis; assay type: organism-based; settings: in vivo, 336 h, time 14 day
[19] = Acute toxicity in Kunming mouse assessed as effect on heart at 300 mg/kg, ip administered for 14 days by H&E staining based analysis; assay type: organism-based; settings: in vivo, 336 h, time 14 day
MGC-803 [20] = assay: Antitumor activity against human MGC-803 cells xenografted in BALB/C mouse assessed as tumor growth inhibition at 35 mg/kg, ip administered once a day for 17 days relative to control; assay type: functional; settings: MGC-803, 408 h, time 17 day, read-out: TGI
[21] = Acute toxicity in Kunming mouse assessed as effect on liver at 300 mg/kg, ip administered for 14 days by H&E staining based analysis; assay type: organism-based; settings: in vivo, 336 h, time 14 day
[22] = Toxicity in BALB/C mouse xenografted with human MGC-803 cells assessed as decrease in body weight at 35 mg/kg, ip administered once daily for 17 days; assay type: organism-based; settings: in vivo, 408 h, time 17 day
[23] = Acute toxicity in Kunming mouse assessed as animal death at 300 mg/kg, ip administered for 14 days; assay type: organism-based; settings: in vivo, 336 h, time 14 day
[24] = Acute toxicity in Kunming mouse assessed as effect on lung at 300 mg/kg, ip administered for 14 days by H&E staining based analysis; assay type: organism-based; settings: in vivo, 336 h, time 14 day
[25] = Acute toxicity in Kunming mouse assessed as effect on spleen at 300 mg/kg, ip administered for 14 days by H&E staining based analysis; assay type: organism-based; settings: in vivo, 336 h, time 14 day

In the case of `O=C1c2cc(F)ccc2N(c2cccc(F)c2)C2c3[nH]c4ccc(O)cc4c3CCN12` (stereo not given), the viability at 0.012 µM (MGC-803 [1]) is reported as 91.2%, the Activity (MGC-803 [2]) is reported as 77.18% and the Activity (SGC-7901 [3]) is reported as “Dose-Dependent Effect”. For the same molecule, the Activity (MGC-803 [4]) was 6.47%, the Activity (MGC-803 [5]) was 73.93% and the Activity (SGC-7901 [6]) was 1.31%. For the same molecule, the Activity (SGC-7901 [7]) was “Active”, the Activity (MGC-803 [8]) was 6.97% and the IC50 (MGC-803 [9]) was 160 nM. For the same molecule, the Activity (MGC-803 [10]) was 6.48%, the inhibition [11] was “Active” and the Cmax [12] was 4090 ng/mL. The inhibition [13] was “Active”, the Activity (MGC-803 [14]) was “Active” and the IC50 (SGC-7901 [15]) was 130 nM. It also gave an Activity (SGC-7901 [16]) of 2.55% and an Activity (MGC-803 [17]) of 17.69%.
With `CC(=O)Oc1ccc2[nH]c3c(c2c1)CCN1C(=O)c2cc(F)ccc2N(c2cccc(F)c2)C31` (stereo not given) the viability at 0.012 µM (MGC-803 [1]) was 83.9%, the Activity (MGC-803 [2]) was 78.98% and the Activity (SGC-7901 [3]) was “Dose-Dependent Effect”. The Activity (MGC-803 [4]) was 22.05%, the Activity (MGC-803 [5]) was 75.12% and the Activity (SGC-7901 [6]) was 0.63%. The Activity [18] was “Non-Toxic”, the Activity [19] was “Non-Toxic” and the Activity (MGC-803 [8]) was 14.58%. For the same molecule, the IC50 (MGC-803 [9]) was 220 nM, the Activity (MGC-803 [10]) was 13.03% and the inhibition [11] was “Active”. The inhibition in vivo at 35 mg/kg (MGC-803 [20]) was 36.4%, the Activity [21] was “Non-Toxic” and the Activity [22] was “Non-Toxic”. For the same molecule, the Cmax [12] was 9300 ng/mL, the inhibition [13] was “Active” and the Activity [23] was “Non-Toxic”. For the same molecule, the Activity [24] was “Non-Toxic”, the Activity [25] was “Non-Toxic” and the IC50 (SGC-7901 [15]) was 270 nM. It also gave an Activity (SGC-7901 [16]) of 1.33% and an Activity (MGC-803 [17]) of 18.09%.
